The record followed here is US10117890B2, “Methods and compositions for treating pain” (Academia Sinica, priority 2012, dated 2018).

One assay concerns ICS-induced pain. As to the kind of experiment: Intermittent cold stress (ICS) mouse model of fibromyalgia, von Frey test. It is filed as in vivo, mice. The method, then:
Mechanical hyperalgesia was assessed by applying a 0.2 mN von Frey filament to the plantar surface of both hind paws. For each paw, the filament was applied for 5 times at 30-s intervals.
To induce fibromyalgia-like symptoms, mice were treated with intermittent cold stress, which produces long-lasting (more than 2 weeks) thermal hyperalgesia and mechanical allodynia, predominantly in females. Method: Mice were placed on stainless mesh plate in a cold room at 4° C. overnight (from 4:30 pm to 10:00 am), followed by intermittent cold stress with environment temperatures alternating between 24 and 4° C. every 30 min, from 10:00 am to 4:30 pm. These procedures were repeated twice. On day 3, the mice were adapted to 24 C for 1 h before behavioral testing.
The second fibromyalgia model is developed by Ueda's group, in which mice were treated with intermittent cold stress for 2 days (Nishiyori & Ueda, 2008). Mice treated with intermittent cold stress will develop long-lasting (>2 weeks) mechanical and thermal hyperalgesia. Analgesic effect of T1-11 was tested in these mice 5 day after intermittent cold stress (ICS). […] Moreover, we found T1-11 and substance P have synergistic effect in treating the ICS-induced pain.

Assay [1] concerns muscle nociceptors (ASIC3-positive muscle afferent DRG neurons expressing ISP-O). The assay is described as follows: Whole-cell patch-clamp recording of outward currents in muscle afferent DRG neurons. It counts as cell-based, mice. The procedure: The digested DRG neurons were washed with fetal calf serum (FCS)-free DMEM or DMEM containing 10% FCS during each treatment. Fully digested DRGs were triturated and plated on poly-L-lysine-coated cover slides. Cell cultures were maintained in a 5% CO2 incubator at 37° C.
Whole-cell patch-clamp recordings of muscle-afferent neurons involved use of Axopatch MultiClamp 700B (Axon Instruments). Neurons with membrane potential >−40 mV were discarded. The bridge was balanced in current-clamp recording, and the series resistance was compensated 70% in voltage-clamp recording with […] 700B compensation circuitry. All experiments were performed at room temperature (21-25° C.) and completed within 30 hr post-seeding. Unless specifically mentioned, the patch pipettes were prepared in 1-5 MΩ and filled with internal solution containing (in mM) 100 KCl, 2 Nae-ATP, 0.3 Na3-GTP, 10 EGTA, 5 MgCl2, and 40 HEPES, adjusted to pH 7.4 with KOH. Recording cells were superfused in artificial cerebrospinal fluid (ACSF) by control with gravitational force. The ACSF contained (in mM) 130 NaCl, 5 KCl, 1 MgCl2, 2 CaCl2, 10 glucose, and 20 HEPES, adjusted to pH 7.4 with NaOH. Osmolarity was adjusted to 300 mOsm. The acidic ACSF was titrated to pH 6.8 by […]. […] If not specifically mentioned, drugs listed above were from Sigma Chemical (St. Louis, Mo.).
The procedure was repeated at least 2 times to ensure consistent data. […] ACSF-containing compounds were superfused for 1 min to ensure complete replacement of previous perfusate between treatments. […] A recording pipette containing 1 mM GDP-β-S was used in GTP dialysis. The GABA-B current was induced by 100 μM Baclofen at the beginning of dialysis (0, 1 and 2 min after whole-cell patch clamp). Then, Baclofen was used to re-stimulate the dialyzed neurons after 10-min dialysis (10, 11 and 12 min after whole-cell patch clamp).
A general note: Patch clamp records ionic current or voltage across a cell membrane.

Consider `OC[C@H]1O[C@@H](n2cnc3c(NCc4ccc(O)cc4)ncnc32)[C@H](O)[C@@H]1O` [T1-11, N^6-(4-hydroxybenzyl)adenosine], for which the “analgesic effect on ICS-treated mice, T1-11 alone” value with ICS-induced pain (T1-11 3 μg/kg alone) is “did not show analgesic effect”. In addition, the “analgesic effect on ICS-treated mice, combination” value in the assay on ICS-induced pain (T1-11 3 μg/kg combined with 0.6 mg/kg SM-substance P) is “showed analgesic effect”. In addition, in the assay with ICS-induced pain (T1-11 30 ug/kg), the “analgesic effect on mice treated with ICS” value is “had analgesic effect”. Besides, the “therapeutic dose to treat the ICS-induced pain” value in the assay on ICS-induced pain (i.p., 5 day after ICS) was found to be 0.03 mg/kg. Besides, the “IT1-11 in A2A−/− muscle afferent DRG neurons” value in assay [1] (A2A−/− neurons) is on record as “not changed”. Moreover, in assay [1] (Mus musculus, DRG neuron, peak whole-cell current, 1, 3, 10, 30 and 100 nM, n=11, read-out: EC50 of T1-11-induced outward current (IT1-11)), the EC50 (usually the concentration that produces a half-maximal response) was 1.3 nM. In addition, in assay [1] (SP-sensitive muscle nociceptors), the “induction of outward current in ASIC3/SP-expressing muscle DRG neurons” value is recorded as “elicited a slow inactivating outward current”. For the same molecule, in assay [1] (voltage shift from −50 mV to −20 mV, muscle afferent neurons expressing ISP-O), the “effect on M-type potassium current” value was “enhanced M current”.
